The target in the assay is T1, TrkA receptor (Homo sapiens, UniProt P04629).
T1 construct: host or cells: U2OS (PathHunter, 'TrkA p75' cells)
T1 sequence (P04629 33-796): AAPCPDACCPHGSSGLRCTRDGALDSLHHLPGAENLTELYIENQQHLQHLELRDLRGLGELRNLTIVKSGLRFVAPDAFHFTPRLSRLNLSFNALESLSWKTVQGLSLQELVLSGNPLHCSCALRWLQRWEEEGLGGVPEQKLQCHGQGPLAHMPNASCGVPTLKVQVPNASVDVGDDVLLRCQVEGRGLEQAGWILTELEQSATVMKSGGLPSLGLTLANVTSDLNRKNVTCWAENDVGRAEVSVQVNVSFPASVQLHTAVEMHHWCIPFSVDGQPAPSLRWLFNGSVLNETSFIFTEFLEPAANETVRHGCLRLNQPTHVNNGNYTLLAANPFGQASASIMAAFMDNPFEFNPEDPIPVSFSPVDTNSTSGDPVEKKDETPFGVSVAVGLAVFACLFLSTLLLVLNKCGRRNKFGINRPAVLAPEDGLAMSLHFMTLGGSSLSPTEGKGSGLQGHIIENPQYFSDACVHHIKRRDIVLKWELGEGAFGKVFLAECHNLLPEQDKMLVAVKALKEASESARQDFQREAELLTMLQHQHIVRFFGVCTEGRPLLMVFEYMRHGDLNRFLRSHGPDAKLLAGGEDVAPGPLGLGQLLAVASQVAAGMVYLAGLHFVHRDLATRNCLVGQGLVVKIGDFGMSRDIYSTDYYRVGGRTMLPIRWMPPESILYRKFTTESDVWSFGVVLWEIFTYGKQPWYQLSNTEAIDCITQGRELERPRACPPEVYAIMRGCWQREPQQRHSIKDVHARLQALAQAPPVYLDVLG
Description: DiscoverX PathHunter TrkA functional assay (NGF-stimulated U2OS cells). Type of assay: cell-based. The conditions noted are these: U2OS cells expressing TrkA-Prolink fusion and Shc1-EA; compound 1 hour, then EC80 NGF 3 hours; luminescence. The protocol:
TrkA functional activity was measured using a DiscoverX PathHunter assay. In this assay, U2OS cells are express TrkA receptor as a fusion with the weakly complementing fragment of B-galactosidase, which DiscoverX calls “Prolink (PK)”; additionally, Shcl is fused with a larger fragment, which is called “Enzyme Acceptor (EA)”. Activation of the TrkA receptor, upon NGF addition, results in the kinase domain being phosphorylated, resulting in subsequent recruitment of Shcl-EA protein. That recruitment results in an active B-galactosidase enzyme that is detected by addition of a chemiluminescent substrate.
All reagents were purchased from DiscoverX, except for the receptor agonists (NGF, BDNF, NT3) which were purchased from Peprotech. Cells were expanded and frozen into cryovials (TrkA p75 @passage 13, 1.5×10^7 cells/vial; TrkC p75 @passage 11, 1.5×10^7 cells/vial in InVitrogen Recovery Cell Freezing media), and stored in the vapor phase of liquid nitrogen, and thawed immediately before use. Thawed cells were added to a 384-well plate (BD Falcon 384-well white/clear, TC surface 120 uL assay plates (353963), 20 uL of 0.375e6 cells/mL=>7500 cells/well), and allowed to incubate overnight. Compound (10 mM starting dose: 202.5 nL compound yielding 0.81% DMSO final in total assay volume and starting doses 81 uM) was added the following morning and allowed to incubate on cells for 1 hour. Then, 5 uL EC80 of agonist (NGF for TrkA; BDNF for TrkB; NT3 for TrkC) was added and allowed to incubate for 3 hours at room temperature. DiscoverX PathHunter detection reagent is added (12 uL to plate and components diluted in parts as per kit instructions) and the plate is further incubated for 1 hour in the dark. The plate is read via luminescence on the Perkin Elmer Envision.
By IC50 is commonly meant the midpoint of a concentration-inhibition curve. A low value points to greater potency in that assay. `Cn1ccnc1-c1cc(NC(=O)NC2c3ccccc3-c3ccccc32)n(C)n1` [Compound 85, 1-(9H-fluoren-9-yl)-3-[1-methyl-3-(1-methyl-1H-imidazol-2-yl)-1H-pyrazol-5-yl]urea] yielded an IC50 of 100 nM.
`CC(C)(C)c1cc(NC(=O)NC2c3ccccc3-c3ccccc32)n(-c2ccccc2)n1` [Compound 16, 1-(3-tert-butyl-1-phenyl-1H-pyrazol-5-yl)-3-(9H-fluoren-9-yl)urea] returned an IC50 of 69 nM.
On to `Cc1cnc(-c2ccccc2)c(NC(=O)NC2c3ccccc3-c3ccccc32)c1` [Compound 71, 1-(9H-fluoren-9-yl)-3-(5-methyl-2-phenylpyridin-3-yl)urea], for which the IC50 worked out at 120 nM.
Then `Cc1nc(-c2ccccc2)c(NC(=O)NC2c3ccccc3-c3ccccc32)n1C` [Compound 58, 1-(1,2-dimethyl-4-phenyl-1H-imidazol-5-yl)-3-(9H-fluoren-9-yl)urea], with 190 nM.
As for `O=C(Nc1c(-c2ccccc2)nc2sccn12)NC1c2ccccc2-c2ccccc21` [Compound 6, 1-(9H-fluoren-9-yl)-3-(6-phenylimidazo [2,1-b][1,3]thiazol-5-yl)urea], the figure is 35 nM.
The compound `Cc1nnc(-c2cccc(NC(=O)NC3c4ccccc4-c4ccccc43)c2)[nH]1` [Compound 37, 1-(9H-fluoren-9-yl)-3-[3-(5-methyl-4H-1,2,4-triazol-3-yl)phenyl]urea] yielded an IC50 of 2300 nM.
In the case of `CN1CCN(Cc2ccccc2NC(=O)NC2c3ccccc3-c3ccccc32)CC1` [Compound 36, 1-(9H-fluoren-9-yl)-3-{2-[(4-methylpiperazin-1-yl)methyl]phenyl}urea], the IC50 turned out to be 3000 nM.
As for `Cc1ccccc1-c1ncccc1NC(=O)NC1c2ccccc2-c2ccccc21` [Compound 77, 1-(9H-fluoren-9-yl)-3-[2-(2-methylphenyl)pyridin-3-yl]urea], the figure is 1200 nM; as for `O=C(Nc1cccnc1-c1ccc(F)cc1)NC1c2ccccc2-c2ccccc21` [Compound 52, 1-(9H-fluoren-9-yl)-3-[2-(4-fluorophenyl)pyridin-3-yl]urea], 100 nM.
For the compound `Cc1nc(-c2ccccc2)c(NC(=O)NC2c3ccccc3-c3ccccc32)[nH]1` [Compound 59, 1-(9H-fluoren-9-yl)-3-(2-methyl-4-phenyl-1H-imidazol-5-yl)urea], the IC50 was 500 nM.
In turn, `O=C(Nc1cncnc1-c1ccccc1)NC1c2ccccc2-c2ccccc21` [Compound 30, 1-(9H-fluoren-9-yl)-3-(4-phenylpyrimidin-5-yl)urea] came in with an IC50 of 170 nM.
Turning to `Cc1ncc(NC(=O)NC2c3ccccc3Oc3ccccc32)c(-c2ccccc2)n1` [Compound 3, 1-(2-methyl-4-phenylpyrimidin-5-yl)-3-(9H-xanthen-9-yl)urea], the IC50 worked out at 61 nM.
Regarding `CC(C)(C)c1cc(NC(=O)NC2c3ccccc3-c3ccccc32)n(-c2ccc(F)cc2)n1` [Compound 20, 1-[3-tert-butyl-1-(4-fluorophenyl)-1H-pyrazol-5-yl]-3-(9H-fluoren-9-yl)urea], the IC50 worked out at 190 nM.
In turn, `Cc1nc(-c2cccc(NC(=O)NC3c4ccccc4-c4ccccc43)c2)oc1C` [Compound 65, 1-[3-(4,5-dimethyl-1,3-oxazol-2-yl)phenyl]-3-(9H-fluoren-9-yl)urea] showed an IC50 of 310 nM.
`O=C(Nc1ncnn1-c1ccccc1)NC1c2ccccc2-c2ccccc21` [Compound 67, 1-(9H-fluoren-9-yl)-3-(1-phenyl-1H-1,2,4-triazol-5-yl)urea]: half-maximal inhibition (IC50) required 4800 nM.
Compound `O=C(Nc1cccnc1-c1ccoc1)NC1c2ccccc2-c2ccccc21` [Compound 55, 1-(9H-fluoren-9-yl)-3-(2-furan-3-ylpyridin-3-yl)urea] returned an IC50 of 390 nM.
With `Cn1ncnc1-c1cncc(NC(=O)NC2c3ccccc3-c3ccccc32)c1` [Compound 74, 1-(9H-fluoren-9-yl)-3-[5-(1-methyl-1H-1,2,4-triazol-5-yl)pyridin-3-yl]urea], the concentration for half-maximal inhibition (IC50) was determined as 990 nM.
For the compound `Cn1ccnc1-c1cncc(NC(=O)NC2c3ccccc3-c3ccccc32)c1` [Compound 82, 1-(9H-fluoren-9-yl)-3-[5-(1-methyl-1H-imidazol-2-yl)pyridin-3-yl]urea], the IC50 amounted to 260 nM.
As to `CCc1nnc(-c2cccc(NC(=O)NC3c4ccccc4-c4ccccc43)c2)o1` [Compound 60, 1-[3-(5-ethyl-1,3,4-oxadiazol-2-yl)phenyl]-3-(9H-fluoren-9-yl)urea], the IC50 worked out at 560 nM.
`Cn1ncnc1-c1cccc(NC(=O)NC2c3ccccc3-c3ccccc32)c1` [Compound 79, 1-(9H-fluoren-9-yl)-3-[3-(1-methyl-1H-1,2,4-triazol-5-yl)phenyl]urea] returned an IC50 of 73 nM.
Consider `O=C(Nc1cccnc1-c1ccnc(F)c1)NC1c2ccccc2-c2ccccc21` [Compound 53, 1-(9H-fluoren-9-yl)-3-(2′-fluoro-2,4′-bipyridin-3-yl)urea], for which half-maximal inhibition (IC50) required 540 nM.
`O=C(Nc1c(-c2ccncc2)nc2ccccn12)NC1c2ccccc2-c2ccccc21` [Compound 69, 1-(9H-fluoren-9-yl)-3-(2-pyridin-4-ylimidazo[1,2-a]pyridin-3-yl)urea] returned an IC50 of 770 nM.
Turning to `O=C(Nc1cc(-c2ccccc2)nn1-c1ccccc1)NC1c2ccccc2-c2ccccc21` [Compound 15, 1-(1,3-diphenyl-1H-pyrazol-5-yl)-3-(9H-fluoren-9-yl)urea], the IC50 came to 3000 nM.
Turning to `Cn1ccnc1-c1cccc(NC(=O)NC2c3ccccc3-c3ccccc32)c1` [Compound 63, 1-(9H-fluoren-9-yl)-3-[3-(l-methyl-1H-imidazol-2-yl)phenyl]urea], 96 nM corresponded to half-maximal inhibition (IC50).
Compound `Cc1nnc(-c2cccc(NC(=O)NC3c4ccccc4-c4ccccc43)c2)s1` [Compound 47, 1-(9H-fluoren-9-yl)-3-[3-(5-methyl-1,3,4-thiadiazol-2-yl)phenyl]urea] showed an IC50 of 970 nM.
Turning to `Cc1ccc(NC(=O)NC2c3ccccc3-c3ccccc32)c(-c2ccc(F)cc2)n1` [Compound 5, 1-(9H-fluoren-9-yl)-3-[2-(4-fluorophenyl)-6-methylpyridin-3-yl]urea], the IC50 is 230 nM.
The compound `CCn1cnnc1-c1cccc(NC(=O)NC2c3ccccc3-c3ccccc32)c1` [Compound 44, 1-[3-(4-ethyl-4H-1,2,4-triazol-3-yl)phenyl]-3-(9H-fluoren-9-yl)urea] displayed an IC50 of 410 nM.
`CN(C)C(=O)c1cccc(NC(=O)NC2c3ccccc3-c3ccccc32)c1` [Compound 61, 3-[(9H-fluoren-9-ylcarbamoyl)amino]-N,N-dimethylbenzamide] came in with an IC50 of 670 nM.
Then `Cn1nnc(-c2cccc(NC(=O)NC3c4ccccc4-c4ccccc43)c2)n1` [Compound 32, 1-(9H-fluoren-9-yl)-3-[3-(2-methyl-2H-tetrazol-5-yl)phenyl]urea], with 1200 nM.
Compound `O=C(Nc1cccnc1-n1cccn1)NC1c2ccccc2-c2ccccc21` [Compound 83, 1-(9H-fluoren-9-yl)-3-[2-(1H-pyrazol-1-yl)pyridin-3-yl]urea] showed an IC50 of 3000 nM.
Compound `Cc1nnc(-c2cccc(NC(=O)NC3c4ccccc4-c4ccccc43)c2)o1` [Compound 46, 1-(9H-fluoren-9-yl)-3-[3-(5-methyl-1,3,4-oxadiazol-2-yl)phenyl]urea] displayed an IC50 of 660 nM.
For the compound `Cc1ccc(NC(=O)NC2c3ccccc3-c3ccccc32)c(F)n1` [Compound 27, 1-(9H-fluoren-9-yl)-3-(2-fluoro-6-methylpyridin-3-yl)urea], the IC50 is 3200 nM.
Consider `Cc1cc(NC(=O)NC2c3ccccc3-c3ccccc32)n(-c2ccc(F)cc2)n1` [Compound 41, 1-(9H-fluoren-9-yl)-3-[1-(4-fluorophenyl)-3-methyl-1H-pyrazol-5-yl]urea], for which half-maximal inhibition (IC50) required 83 nM.
`O=C(Nc1cncc(-c2cccnc2)c1)NC1c2ccccc2-c2ccccc21` [Compound 72, 1-(3,3′-bipyridin-5-yl)-3-(9H-fluoren-9-yl)urea] yielded an IC50 of 1400 nM.
With `Cn1nnnc1-c1cccc(NC(=O)NC2c3ccccc3-c3ccccc32)c1` [Compound 64, 1-(9H-fluoren-9-yl)-3-[3-(l-methyl-1H-tetrazol-5-yl)phenyl]urea], half-maximal inhibition (IC50) required 330 nM.
For the compound `Cc1ccccc1-n1nc(C(C)(C)C)cc1NC(=O)NC1c2ccccc2-c2ccccc21` [Compound 18, 1-[3-tert-butyl-1-(2-methylphenyl)-1H-pyrazol-5-yl]-3-(9H-fluoren-9-yl)urea], the IC50 stood at 850 nM.
`O=C(Nc1cccc(-n2cnnn2)c1)NC1c2ccccc2-c2ccccc21` [Compound 57, 1-(9H-fluoren-9-yl)-3-[3-(1H-tetrazol-1-yl)phenyl]urea] yielded an IC50 of 1300 nM.
With `Cc1nc(NC(=O)NC2c3ccccc3-c3ccccc32)n(-c2ccccc2)n1` [Compound 78, 1-(9H-fluoren-9-yl)-3-(3-methyl-1-phenyl-1H-1,2,4-triazol-5-yl)urea], it took 520 nM to reach half-maximal inhibition (IC50).
The compound `Cn1ncc(-c2ccccc2)c1NC(=O)NC1c2ccccc2-c2ccccc21` [Compound 9, 1-(9H-fluoren-9-yl)-3-(1-methyl-4-phenyl-1H-pyrazol-5-yl)urea] came in with an IC50 of 530 nM.

The record behind these values is patent US9718782B2, “TrkA kinase inhibitors, compositions and methods thereof” (MERCK SHARP & DOHME CORP, priority 2013, dated 2017).
